Measured values reported in patent publication US20260207569A1, “LPA1 ANTAGONISTS FOR TREATING INTERSTITIAL LUNG DISEASE” (Bristol-Myers Squibb Company, priority 2022, published 2026).

How the values were obtained:
[1] = Phase 2 PPF cohort safety: adverse events, prespecified asymptomatic or symptomatic blood pressure reduction criteria, dose reductions; type: in vivo, human; settings: for Patients with asymptomatic blood pressure reduction, (%) / Patients with asymptomatic blood pressure reduction, no. / Patients with symptomatic blood pressure reduction, (%) / Patients with symptomatic blood pressure reduction, no.: prespecified criteria
Procedure: (§1) A total of 123 participants with PPF were randomized. Participants (age ≥21 years) were randomized (1:1:1) to receive 30 mg or 60 mg Compound A or PBO twice daily for 26 weeks. […] Immunosuppressive medications (mycophenolate mofetil, mycophenolic acid, azathioprine and/or tacrolimus) were permitted only if dosing is stable for ≥6 months prior to screening. If receiving antifibrotic agents pirfenidone or nintedanib, patients had to receive a stable dosage for ≥3 months prior to screening and during the screening period; if not receiving pirfenidone or nintedanib, patients had to be naive to both drugs or not have received either 4 weeks prior to Day 1. A total of 47 (38.2%) subjects were receiving antifibrotic treatment (with or without immunosuppression therapy). Of those subjects, 34 were being treated with nintedanib and 13 with pirfenidone. Participants were stratified by usual interstitial pneumonia (UIP) pattern (presence versus absence) and background therapy (antifibrotics +/−ILD-targeted immunosuppression versus ILD-targeted immunosuppression alone versus none). UIP pattern was present in 52% of subjects and unclassifiable ILD was he most common disease categorization.
Patient is experiencing any of the following, confirmed by retest within 15 minutes: • Seated systolic blood pressure <85 mmHg • Seated diastolic blood pressure <55 mmHg • Orthostatic hypotension
Patient is experiencing symptoms that, in the investigator's opinion, could be associated with a reduction in blood pressure and is also experiencing at least one of the following, confirmed by retest within 15 minutes: • Seated systolic blood pressure <100 mmHg or seated diastolic blood pressure <60 mmHg • Decrease of seated systolic blood pressure of ≥20 mmHg from the previous visit or decrease of seated diastolic blood pressure of ≥10 mmHg from the previous visit • Orthostatic hypotension • Orthostatic tachycardia

[2] = test system: participants with PPF; assay: Phase 2 PPF cohort efficacy: rate of FVC decline (% predicted) / FVC to Week 26; type: in vivo, human; settings: for Mean observed change from baseline in ppFVC and FVC vs placebo: to week 26
Procedure: as §1
The study was not powered to detect statistical significance (no formal testing). No target effect size was defined in the study design. There were two estimand approaches for analysis: • Treatment Policy: Effect of treatment with dose reduction as part of treatment regimen. • While-On Treatment: Effect of treatment without dose reduction.
The main efficacy endpoint, rate of FVC decline (in % of predicted) from baseline to wk-26 in the PPF cohort, was estimated using a linear mixed-effects model utilizing all FVC timepoints. It was analyzed under a primary estimand (utilizing all data, treatment policy strategy), and under supplementary estimand (utilizing all data up to the point of dose reduction, while-on-treatment strategy). Analysis was performed in the overall population as well as in sub-groups by 1) background anti-fibrotic treatment or not 2) UIP radiographic pattern (presence or not). The mean baseline ppFVC was 66.7% for the PPF cohort.

[3] = PPF cohort, 30-mg Compound A (n = 40)
[4] = PPF cohort, 60-mg Compound A (n = 42)

## CCCN(C)C(=O)OCc1c(-c2ccc(O[C@H]3CCC[C@H](C(=O)O)C3)c(C)n2)nnn1C [Compound A, (1S,3S)-3-((2-methyl-6-(1-methyl-5-(((methyl(propyl)carbamoyl)-oxy)methyl)-1H-1,2,3-triazol-4-yl)pyridin-3-yl)oxy)cyclohexane-1-carboxylic acid]
[1]; PPF cohort
  Day-1 blood pressure reduction: dose dependent day-1 blood pressure reduction
  Marked laboratory abnormalities: No notable imbalances in marked laboratory abnormalities among treatment groups
  Prespecified blood pressure reduction criteria across arms: increased in a dose-dependent manner
[1]; [3]
  Patients with dose reductions, (%): (15.0) %
  Patients with dose reductions, no.: 6 no.
  Patients with orthostatic hypotension (within asymptomatic blood pressure reduction), (%): (15.0) %
  Patients with orthostatic hypotension (within asymptomatic blood pressure reduction), no.: 6 no.
  Patients with orthostatic hypotension (within symptomatic blood pressure reduction), (%): (2.5) %
  Patients with orthostatic hypotension (within symptomatic blood pressure reduction), no.: 1 no.
  Patients with asymptomatic blood pressure reduction, (%): (22.5) %
  Patients with asymptomatic blood pressure reduction, no.: 9 no.
  Patients with symptomatic blood pressure reduction, (%): (5.0) %
  Patients with symptomatic blood pressure reduction, no.: 2 no.
[1]; [4]
  Patients with dose reductions, (%): (11.9) %
  Patients with dose reductions, no.: 5 no.
  Patients with orthostatic hypotension (within asymptomatic blood pressure reduction), (%): (26.2) %
  Patients with orthostatic hypotension (within asymptomatic blood pressure reduction), no.: 11 no.
  Patients with orthostatic hypotension (within symptomatic blood pressure reduction), (%): (9.5) %
  Patients with orthostatic hypotension (within symptomatic blood pressure reduction), no.: 4 no.
  Patients with asymptomatic blood pressure reduction, (%): (31.0) %
  Patients with asymptomatic blood pressure reduction, no.: 13 no.
  Patients with symptomatic blood pressure reduction, (%): (14.3) %
  Patients with symptomatic blood pressure reduction, no.: 6 no.
[1]; PPF, 30 mg BID
  Low BP thresholds (“events”): 30%
[1]; PPF, 30 mg BID (n = 40)
  COVID-19, %: (15.0) %
  COVID-19, no.: 6
  Cough, %: (7.5) %
  Cough, no.: 3
  Deaths due to TEAEs, no.: 0
  Diarrhea, %: (15.0) %
  Diarrhea, no.: 6
  Discontinuations due to TEAEs, %: (2.5) %
  Discontinuations due to TEAEs, no.: 1
  Dizziness, no.: 0
  Dyspnea, %: (5.0) %
  Dyspnea, no.: 2
  Hypertension, no.: 0
  Hypotension, %: (10.0) %
  Hypotension, no.: 4
  Nausea, %: (10.0) %
  Nausea, no.: 4
  Orthostatic hypotension, %: (5.0) %
  Orthostatic hypotension, no.: 2
  Patients with ≥1 TEAE related to study drug, no.: 7
  Patients with ≥1 TEAE, no.: 33
  Patients with ≥1 TESAE, no.: 4
  Rash, %: (7.5) %
  Rash, no.: 3
  Vomiting, %: (7.5) %
  Vomiting, no.: 3
[1]; PPF, 60 mg BID
  Orthostatic hypotension (asymptomatic and symptomatic) vs other groups: higher in the 60 mg group than for other groups
[1]; PPF, 60 mg BID (n = 42)
  COVID-19, %: (14.3) %
  COVID-19, no.: 6
  Cough, %: (11.9) %
  Cough, no.: 5
  Deaths due to TEAEs, no.: 0
  Diarrhea, %: (7.1) %
  Diarrhea, no.: 3
  Discontinuations due to TEAEs, no.: 0
  Dizziness, %: (9.5) %
  Dizziness, no.: 4
  Dyspnea, no.: 0
  Hypertension, %: (2.4) %
  Hypertension, no.: 1
  Hypotension, %: (7.1) %
  Hypotension, no.: 3
  Nausea, %: (2.4) %
  Nausea, no.: 1
  Orthostatic hypotension, %: (9.5) %
  Orthostatic hypotension, no.: 4
  Patients with ≥1 TEAE related to study drug, no.: 11
  Patients with ≥1 TEAE, no.: 28
  Patients with ≥1 TESAE, no.: 5
  Rash, no.: 0
  Vomiting, no.: 0
[1]; PPF, 60 mg BID versus placebo
  Adverse event profile other than low blood pressure: generally in favor of the 60 mg group versus placebo
[2]; PPF cohort
  Treatment differences by UIP pattern: treatment differences were seen in the PPF cohort independent of UIP pattern presence or absence
  Treatment differences in rates of change in ppFVC by background antifibrotic use: consistent with or without background antifibrotic use
[2]; PPF cohort, 30 mg and 60 mg BID
  Dose response of efficacy: Clear dose response
[2]; PPF cohort, background antifibrotics, UIP pattern
  Consistency of efficacy across sub-groups: Efficacy consistent in all sub-groups
[2]; PPF, 30 mg BID, UIP absent, supplementary estimand
  Rate of decline in FVC (% Predicted), slope: −2.24 % Predicted
[2]; PPF, 30 mg BID, UIP present, primary estimand
  Rate of decline in FVC (% Predicted), slope: −3.07 % Predicted
[2]; PPF, 30 mg BID, not receiving antifibrotic treatment, supplementary estimand
  Rate of decline in FVC (% Predicted), slope: −2.83 % Predicted
[2]; PPF, 30 mg BID, overall population, primary estimand (treatment policy), 26 weeks
  Rate of decline in FVC (% Predicted), slope: −2.7 % Predicted
[2]; PPF, 30 mg BID, receiving antifibrotic treatment, supplementary estimand
  Rate of decline in FVC (% Predicted), slope: −1.8 % Predicted
[2]; PPF, 30 mg BID
  Mean observed change from baseline in ppFVC and FVC vs placebo: shows more significant improvement after week 20
[2]; PPF, 60 mg BID, UIP absent, supplementary estimand
  Rate of decline in FVC (% Predicted), slope: −0.7 % Predicted
[2]; PPF, 60 mg BID, UIP present, primary estimand
  Rate of decline in FVC (% Predicted), slope: −1.46 % Predicted
[2]; PPF, 60 mg BID, not receiving antifibrotic treatment, supplementary estimand
  Rate of decline in FVC (% Predicted), slope: −1.56 % Predicted
[2]; PPF, 60 mg BID, overall population, supplementary estimand (while on treatment), 26 weeks
  Rate of decline in FVC (% Predicted), slope: −1.3 % Predicted
[2]; PPF, 60 mg BID, receiving antifibrotic treatment, supplementary estimand
  Rate of decline in FVC (% Predicted), slope: −1.1 % Predicted
[2]; PPF, 60 mg BID
  Mean observed change from baseline in ppFVC and FVC vs placebo: maintains the improvement over placebo through the end of week 26
[2]; PPF, UIP absent, supplementary estimand
  Slope difference, 60 mg − placebo: 3.8 % Predicted
[2]; PPF, UIP present, primary estimand
  Slope difference, 30 mg − placebo: 0.88 % Predicted
[2]; PPF, overall population, primary estimand (treatment policy)
  Slope difference (S.E.), 60 mg − placebo: 3.2 % Predicted
[2]; PPF, overall population, supplementary estimand (while on treatment)
  Slope difference (S.E.), 60 mg − placebo: 2.9 % Predicted
